Measurements taken from patent US10149890B2 (priority 2010, dated 2018).
“And” between values parts separate entries of the source, which are not always exact repeats. Equal values may be shown once.

Assays:
[1] = tested on: clinical isolates of MRSA and MSSA, Staphylococcus aureus ATCC 43300 and ATCC 29213; format: cell-based; conditions: for MIC of the antibiotic alone: before combination with FS-1
[2] = tested on: influenza virus strain A/FPV/Rostock/34; set-up: species or system chickens; conditions: in vivo
[3] = tested on: human immunodeficiency virus HIV-1 (LAI); format: cell-based; conditions: 0.01 mg/ml
[4] = tested on: human immunodeficiency virus HIV-1 (LAI); format: cell-based

## Cc1onc(-c2ccccc2)c1C(=O)N[C@@H]1C(=O)N2[C@@H]1SC(C)(C)[C@@H]2C(=O)O [oxacillin]
[1]
  MIC of the antibiotic in combination with FS-1: 64 µg/mL
  MIC of the antibiotic alone: 256 µg/mL

## CC(N)C12CC3CC(CC(C3)C1)C2 (stereo not shown) [Rimantadine]
[2]
  Number of chickens that died: 10 and 8
  Number of survived chickens: 4 and 6
  Survival %: 28.6 ± 12.53% and 42.9 ± 13.73%

## Cc1cn([C@H]2C[C@H](N=[N+]=[N-])[C@@H](CO)O2)c(=O)[nH]c1=O [azidothymidine]
[3]
  Decrease of reverse transcriptase content compared with negative control: 5 times
  Extinction factor (reverse transcriptase): 0.5724 ± 0.005464
[4]; 0.01 mg/ml
  Extinction factor (p24): 0.0446 ± 0.003187
[4]; FS-1 0.188 and 0.094 mg/ml, azidothymidine 0.01 mg/ml
  Decrease of p24 protein compared to placebo: 60 times

## Cn1nnnc1SCC1=C(C(=O)O)N2C(=O)[C@@H](NC(=O)[C@H](O)c3ccccc3)[C@H]2SC1 [cefamandole]
[1]
  MIC of the antibiotic in combination with FS-1: 8 µg/mL
  MIC of the antibiotic alone: 64 µg/mL

## CCC[C@@H]1C[C@@H](C(=O)N[C@@H]([C@H]2O[C@H](SC)[C@H](O)[C@@H](O)[C@H]2O)[C@@H](C)O)N(C)C1 [lincomycin]
[1]
  MIC of the antibiotic in combination with FS-1: 8 µg/mL
  MIC of the antibiotic alone: 64 µg/mL
